System: E. coli
Experiment: MIC against E. coli
Assay type: cell-based
Conditions: Escherichia coli, read-out: MIC (μg/mL) in metallic Zn or Cu
Source text: Table 1 illustrates the minimum inhibitory concentration against E. coli for various agents.

O=C([O-])c1ccccc1O.[Na+] [Capping Agent, sodium salicylate]
MIC: 3000 µg/mL

From patent publication US11910798B2, “Compositions including a vacancy-engineered (VE)-ZnO nanocomposite, methods of making the compositions and methods of using the compositions” (priority 2015, dated 2024)
